Tests used:
Type in all cases: in vivo, human
[1] = tested on: well-compensated NASH cirrhotic patients; assay: MAESTRO-NAFLD-1 open label resmetirom arm in well-compensated NASH cirrhotic patients
Method: (§1) MRI-PDFF and liver volume (LV) were assessed in, (n=117), and a NASH-cirrhotic active resmetirom treatment arm of MAESTRO-NAFLD-1 (n=73), in patients who had at least baseline and one additional serial PDFF. LV was assessed using a validated artificial intelligence model for segmenting the liver on standard MR images.
MAESTRO-NAFLD-1 is a 52-week >1200 patient Phase 3 randomized double blind placebo controlled NASH clinical trial to study safety and biomarker effects of resmetirom, a selective thyroid hormone receptor beta agonist, in NASH patients with F1-F4 fibrosis identified using non-invasive biomarkers and imaging (NCT04197479). A goal of this “real life” NASH study is to identify non-invasive markers that correlate with individual patient response to resmetirom treatment. The study includes an open label active resmetirom treatment arm in well-compensated NASH cirrhotic patients.
Eligibility required at least 3 metabolic risk factors (metabolic syndrome), and NASH cirrhosis diagnosed on liver biopsy or according to accepted criteria. The primary and key secondary end points of the cirrhotic arm include safety, relative percent reduction of MRI-PDFF (week 16), LDL cholesterol (LDL-C) (week 24), Apolipoprotein B and triglycerides, and markers of fibrosis. Patients received 80-100 mg daily dose of resmetirom for 52 weeks.
105 well-compensated NASH cirrhotic patients were enrolled in the open label arm, 2/3 confirmed by liver biopsy. Demographics include mean age 62.7 (9.0 (SD)), female 64%, BMI 35.4 (7.4), diabetes 70%, hypertension 77%, dyslipidemia >70%, mean ASCVD score 16.1%, hypothyroid 32.4%, 51% on statins. MRE kPa, 5.7 (2.1); fibroscan kPa, 24.6 (14.9), CAP, 318 (59) and mean MRI-PDFF, 8.1% (5). Stage of cirrhosis was inversely correlated with baseline PDFF. At week 52 resmetirom lowered fibroscan CAP (−42 units (p<0.0001) and kPa (−7.6 kPa, p=0.02).

[2] = tested on: adults with biopsy-confirmed NASH (NAS≥4, F1-F3) and hepatic fat fraction ≥10%; assay: 36-week Phase 2 serial MRI-PDFF and liver biopsy study; MRI-PDFF and liver volume (LV) assessment
Method: Hepatomegaly may cause symptoms (e.g., pain) in NASH patients, and is thought to be driven primarily by high liver fat content. […] The purpose of this study was to assess the relationship between liver triglycerides as measured by MRI-PDFF and liver volume (LV) in placebo and resmetirom-treated patients.
as §1
LV at baseline was elevated in non-cirrhotic and cirrhotic NASH patients relative to literature values for healthy controls and was greater than predicted even after accounting for sex and body weight. PDFF correlated with LV at baseline in non-cirrhotic (r2=0.19, p<0.001) and more weakly in cirrhotic NASH (r2=0.079, p=0.01). Reduction in LV (CFB) correlated with reduction in PDFF in placebo (r2=0.25, p=0.001) and resmetirom (r2-0.38, p<0.0001) treated patients at 12 (and 36 (not shown)) weeks (see, e.g., FIG. 1).

[3] = tested on: noninvasively identified NASH patients; assay: MAESTRO-NAFLD-1 52 week Phase 3, 100 mg open label (OL) non-cirrhotic NASH arm
Method: MAESTRO-NASH NCT03900429 and MAESTRO-NAFLD-1 NCT04197479 are 52 week Phase 3 registrational double blind placebo controlled clinical trials to study the effect of resmetirom in more than 2,000 NASH patients. A goal of MAESTRO-NAFLD-1, a 1,200 patient “real life” NASH study is to identify non-invasive markers that correlate with patient response to resmetirom treatment. The 169 patient, 100 mg open label (OL) arm completed the 52 week study in July 2021.
Eligibility required at least 3 metabolic risk factors (Metabolic syndrome), fibroscan kilopascals (kPa) consistent with ≥F1 fibrosis stage, and MRI-PDFF≥8%. The primary and key secondary endpoints of MAESTRO-NAFLD-1 including safety, relative percent reduction of MRI-PDFF (week 16), LDL cholesterol (LDL-C) (week 24), apolipoprotein B and triglycerides, fibroscan and 52 week endpoints were analyzed in the OL arm.

[4] = cirrhotic NASH patients with PDFF≤5% at baseline, week 16

Structure (SMILES): CC(C)c1cc(Oc2c(Cl)cc(-n3nc(C#N)c(=O)[nH]c3=O)cc2Cl)n[nH]c1=O [resmetirom, 2-(3,5-dichloro-4-((5-isopropyl-6-oxo-1,6-dihydropyridazin-3-yl)oxy)phenyl)-3,5-dioxo-2,3,4,5-tetrahydro-1,2,4-triazine-6-carbonitrile]
- safety and tolerability ([1]; 80-100 mg daily up to 52 weeks): safe and well-tolerated
- fibroscan CAP change ([1]; 80-100 mg daily, week 52, p<0.0001): −42 units
- fibroscan kPa change ([1]; 80-100 mg daily, week 52, p=0.02): −7.6 kPa
- BP reduction ([1]; NASH cirrhotic arm): 4-5 mm
- LV mean % CFB [1, 4]: −16.3%
- PDFF mean % CFB [1, 4]: −2.5%
- ApoB reduction ([1]; independent of cirrhosis stage): 20%
- LDL-C reduction ([1]; independent of cirrhosis stage): 20%
- Lp (a) reduction ([1]; independent of cirrhosis stage): 30%
- triglycerides reduction ([1]; independent of cirrhosis stage): 21%
- GGT change ([1]; p=0.04): −27%
- PDFF lowered by ([1]; patients with baseline PDFF>5%, p<0.0057): 37%
- MRE lowered by ([1]; week 52): 0.68 kPa
- patients with MRE reduction of ≥15% ([1]; week 52): 34%
- patients with ≥15% reduction in LV ([1]; week 52, independent of baseline cirrhosis severity): 73%
- LV reduction ([2]; 12 weeks, p<0.0001 vs placebo): −18.6%
- liver fat reduction (MRI-PDFF) ([2]; 36-week Phase 2, compared with placebo, associated with NASH resolution on liver biopsy): statistically significant liver fat reduction
- LV reduction ([2]; 36 weeks, p<0.0001 vs placebo): −20.5%
- percentage of patients with ≥15% reduction in liver volume ([2]; Week 12, p<0.0001 vs placebo): 69.2%
- week 12 imaging response in patients who had NASH resolution and/or fibrosis reduction on biopsy at week 36 ([2]; all such resmetirom treated patients): PDFF reduction ≥30% and/or LV reduction of ≥15%
- ELF (inflammatory and fibrosis biomarker) ([3]; 100 mg OL arm): Significant reductions
- LV reduction relative to that predicted by % reduction in MRI-PDFF ([3]; 100 mg OL arm): 2-3 fold
- M30 (inflammatory and fibrosis biomarker) ([3]; 100 mg OL arm): Significant reductions
- adiponectin ([3]; 100 mg OL arm): increase
- reverse T3 (inflammatory and fibrosis biomarker) ([3]; 100 mg OL arm): Significant reductions
- LDL-C reduction ([3]; 100 mg OL arm, p<0.0001): −22%
- apolipoprotein-B reduction ([3]; 100 mg OL arm, p<0.0001): −24%
- triglycerides reduction ([3]; 100 mg OL arm, p<0.0001): −24%
- blood pressure (systolic, diastolic) reduction ([3]; 100 mg OL arm, p=0.02): ~2 mmHg
- patients with weight loss ≥5% ([3]; 100 mg OL arm, linked to resmetirom exposure (SHBG)): ~25%
- safety ([3]; 100 mg per day up to 52 weeks): No safety flags were identified
- liver volume (LV) reduction ([3]; 100 mg, week 52, p<0.0001): −23%
- bone mineral density (DEXA) ([3]; 52 weeks): unchanged
- fibroscan CAP change relative to baseline ([3]; week 52, p<0.0001): −39 (4.6)
- fibroscan VCTE change relative to baseline ([3]; week 52, p<0.0001): −1.87
- fibroscan VCTE percent change relative to baseline ([3]; week 52, p<0.0001): −20%
- MRE change relative to baseline ([3]; week 52, p=0.03): −0.34

— patent US12661361B2, “Resmetirom for reducing liver volume” (Madrigal Pharmaceuticals, Inc., priority 2021, dated 2026)
